Measured values taken from patent US4345938A, “Herbicidal 2-haloacetanilides” (Monsanto Company, priority 1980, dated 1982).
Like-named read-outs stand apart in the source and are kept apart here.

Legend:
Type in all cases: in vivo
Echinochloa crus-galli = assay: Field transplant rice test, applied 9 DAT, EC; details: for inhibition at 375 g/ha / inhibition at 750 g/ha / inhibition at 1500 g/ha / inhibition at 3000 g/ha: Echinochloa crus-galli, 216 h, read-out: Percent Inhibition, EC; for inhibition at 375 g/ha: 0.375 Kg/Ha; for inhibition at 750 g/ha: 0.75 Kg/Ha; for inhibition at 1500 g/ha: 1.5 Kg/Ha; for inhibition at 3000 g/ha: 3.0 Kg/Ha
Description: (§1) In the discussion of data below, occasional reference is made to herbicide application rates symbolized as "GR15 " and "GR85 "; these rates are given in kilograms per hectare (kg/ha) which are convertible into pounds per acre (lbs/A) by dividing the kg/ha rate by 1.12.
(§2) A further guide to the effectiveness of a chemical as a selective herbicide is the "selectivity factor" ("SF") for a herbicide in given crops and weeds. The selectivity factor is a measure of the relative degree of crop safety and weed injury and is expressed in terms of the GR15 /GR85 ratio, i.e., the GR15 rate for the crop divided by the GR85 rate for the weed, both rates in kg/ha (lb/A.)
(§3) The test data in Table III for all compounds was obtained under identical test conditions. The weeds used in the tests herein have the following abbreviations in the tables: Echinochloa crus-galli (EC), Monochloria vaginalis (MV), Cyperus Serotinus (CS), Eleocharis Kuroguwai (EK) and Sagittaria trifolia (ST).
(§4) In further comparative tests, a preferred compound of this invention (Example 1) was tested in the field with prior art Compounds A-D. These tests were conducted under conditions reflecting herbicide application times generally favorable to all herbicides in the test. The timing of application of herbicides to transplant rice is very important, whether, as in some instances, prior to transplanting the rice; in other instances, at the time of transplanting or else after transplanting. Application times are conventionally referred to as "days before transplant" (DBT) or "days after transplant" ("DAT"). The field test data in Table IV was obtained from a test in which the herbicides were applied at the time of transplant, i.e., "0 DAT", with observations being made weekly up to six weeks after transplant ("WAT") beginning at two weeks after transplant; for illustrative and representative purposes, only the early, middle and late period observations, i.e., 2 WAT, 4 WAT and 6 WAT, are shown in Table IV. The data in Table IV is for rates of application common to all herbicides in the test, i.e., from 3.0 kg/ha (2.67 lb/A) down to 0.375 kg/ha (0.34 lb/A). All herbicides were applied at their actual or expected use rates, i.e., as granules containing 2.5% by weight herbicide for the compound of Example 1, Compounds B, C and D and 5.0% by weight for Compound A.
(§5) In Table V are presented field data showing the relative performance of the compound of Example 1 and Compounds A-D applied 9 DAT, with observations being made weekly from 3 WAT to 7 WAT; again, for illustrative and representative purposes, only the early, middle and late period observations are reported in Table V, the herbicide rates and concentrations of active ingredients the same as is shown in Table IV.

Rice [1] = assay: Field transplant rice test, applied 0 DAT, rice injury; details: Oryza sativa, 0 h, read-out: Percent Inhibition, Rice; for inhibition at 375 g/ha: 0.375 Kg/Ha; for inhibition at 750 g/ha: 0.75 Kg/Ha; for inhibition at 1500 g/ha: 1.5 Kg/Ha; for inhibition at 3000 g/ha: 3.0 Kg/Ha
Experimental: as §4

Rice [2] = assay: Field transplant rice test, applied 9 DAT, rice injury; details: Oryza sativa, 216 h, read-out: Percent Inhibition, Rice; for inhibition at 375 g/ha: 0.375 Kg/Ha; for inhibition at 750 g/ha: 0.75 Kg/Ha; for inhibition at 1500 g/ha: 1.5 Kg/Ha; for inhibition at 3000 g/ha: 3.0 Kg/Ha
Experimental: as §4, §5

Monochoria vaginalis = assay: Field transplant rice test, applied 9 DAT, MV; details: for inhibition at 375 g/ha / inhibition at 750 g/ha / inhibition at 1500 g/ha / inhibition at 3000 g/ha: Pontederia vaginalis, 216 h, read-out: Percent Inhibition, MV; for inhibition at 375 g/ha: 0.375 Kg/Ha; for inhibition at 750 g/ha: 0.75 Kg/Ha; for inhibition at 1500 g/ha: 1.5 Kg/Ha; for inhibition at 3000 g/ha: 3.0 Kg/Ha
Description: as §1, §2, §3, §4, §5

Eleocharis kuroguwai = assay: Field transplant rice test, applied 9 DAT, EK; details: for inhibition at 375 g/ha / inhibition at 750 g/ha / inhibition at 1500 g/ha / inhibition at 3000 g/ha: Eleocharis kuroguwai, 216 h, read-out: Percent Inhibition, EK; for inhibition at 375 g/ha: 0.375 Kg/Ha; for inhibition at 750 g/ha: 0.75 Kg/Ha; for inhibition at 1500 g/ha: 1.5 Kg/Ha; for inhibition at 3000 g/ha: 3.0 Kg/Ha
Description: as §1, §2, §3, §4, §5

`CCCOCCN(C(=O)CCl)c1c(CC)cccc1CC` [Compound D, 2',6'-diethyl-N-(n-propoxyethyl)-2-chloroacetanilide] gave an inhibition at 375 g/ha (Echinochloa crus-galli; 3 WAT) of 62%, an inhibition at 375 g/ha (Echinochloa crus-galli; 5 WAT) of 48% and an inhibition at 375 g/ha (Echinochloa crus-galli; 7 WAT) of 57%. For the same compound, the inhibition at 750 g/ha (Echinochloa crus-galli; 3 WAT) was 88%, the inhibition at 750 g/ha (Echinochloa crus-galli; 5 WAT) was 92% and the inhibition at 750 g/ha (Echinochloa crus-galli; 7 WAT) was 88%. It also gave an inhibition at 1500 g/ha (Echinochloa crus-galli; 3 WAT) of 78%, an inhibition at 1500 g/ha (Echinochloa crus-galli; 5 WAT) of 75% and an inhibition at 1500 g/ha (Echinochloa crus-galli; 7 WAT) of 78%. For the same compound, the inhibition at 3000 g/ha (Echinochloa crus-galli; 3 WAT) was 100%, the inhibition at 3000 g/ha (Echinochloa crus-galli; 5 WAT) was 100% and the inhibition at 3000 g/ha (Echinochloa crus-galli; 7 WAT) was 100%. For the same compound, the “selectivity factor (GR15/GR85), EC in transplant rice” value (Echinochloa crus-galli; between 3 WAT and 7 WAT) was 1, the inhibition at 375 g/ha (Rice [1]; 2 WAT) was 0% and the inhibition at 375 g/ha (Rice [1]; 4 WAT) was 3%. The inhibition at 375 g/ha (Rice [1]; 6 WAT) was 2%, the inhibition at 750 g/ha (Rice [1]; 2 WAT) was 2% and the inhibition at 750 g/ha (Rice [1]; 4 WAT) was 2%. It also gave an inhibition at 750 g/ha (Rice [1]; 6 WAT) of 0%, an inhibition at 1500 g/ha (Rice [1]; 2 WAT) of 10% and an inhibition at 1500 g/ha (Rice [1]; 4 WAT) of 8%. The inhibition at 1500 g/ha (Rice [1]; 6 WAT) was 7%, the inhibition at 3000 g/ha (Rice [1]; 2 WAT) was 8% and the inhibition at 3000 g/ha (Rice [1]; 4 WAT) was 7%. For the same compound, the inhibition at 3000 g/ha (Rice [1]; 6 WAT) was 5%, the inhibition at 375 g/ha (Rice [2]; 3 WAT) was 8% and the inhibition at 375 g/ha (Rice [2]; 5 WAT) was 7%. The inhibition at 375 g/ha (Rice [2]; 7 WAT) was 7%, the inhibition at 750 g/ha (Rice [2]; 3 WAT) was 10% and the inhibition at 750 g/ha (Rice [2]; 5 WAT) was 5%. The inhibition at 750 g/ha (Rice [2]; 7 WAT) was 2%, the inhibition at 1500 g/ha (Rice [2]; 3 WAT) was 10% and the inhibition at 1500 g/ha (Rice [2]; 5 WAT) was 5%. It also gave an inhibition at 1500 g/ha (Rice [2]; 7 WAT) of 7%, an inhibition at 3000 g/ha (Rice [2]; 3 WAT) of 15% and an inhibition at 3000 g/ha (Rice [2]; 5 WAT) of 5%. For the same compound, the inhibition at 3000 g/ha (Rice [2]; 7 WAT) was 8%, the inhibition at 375 g/ha (Monochoria vaginalis; 3 WAT) was 95% and the inhibition at 375 g/ha (Monochoria vaginalis; 5 WAT) was 98%. It also gave an inhibition at 375 g/ha (Monochoria vaginalis; 7 WAT) of 95%, an inhibition at 750 g/ha (Monochoria vaginalis; 3 WAT) of 100% and an inhibition at 750 g/ha (Monochoria vaginalis; 5 WAT) of 87%. It also gave an inhibition at 750 g/ha (Monochoria vaginalis; 7 WAT) of 100%, an inhibition at 1500 g/ha (Monochoria vaginalis; 3 WAT) of 100% and an inhibition at 1500 g/ha (Monochoria vaginalis; 5 WAT) of 100%. For the same compound, the inhibition at 1500 g/ha (Monochoria vaginalis; 7 WAT) was 100%, the inhibition at 3000 g/ha (Monochoria vaginalis; 3 WAT) was 100% and the inhibition at 3000 g/ha (Monochoria vaginalis; 5 WAT) was 100%. For the same compound, the inhibition at 3000 g/ha (Monochoria vaginalis; 7 WAT) was 100%, the “selectivity factor (GR15/GR85), MV in transplant rice” value (Monochoria vaginalis; between 3 WAT and 7 WAT) was 8 and the “selectivity factor (GR15/GR85), EK in transplant rice” value (Eleocharis kuroguwai; 3 WAT) was “about 1”. The inhibition at 375 g/ha (Eleocharis kuroguwai; 3 WAT) was 50%, the inhibition at 375 g/ha (Eleocharis kuroguwai; 5 WAT) was 23% and the inhibition at 375 g/ha (Eleocharis kuroguwai; 7 WAT) was 0%. The inhibition at 750 g/ha (Eleocharis kuroguwai; 3 WAT) was 45%, the inhibition at 750 g/ha (Eleocharis kuroguwai; 5 WAT) was 20% and the inhibition at 750 g/ha (Eleocharis kuroguwai; 7 WAT) was 0%. It also gave an inhibition at 1500 g/ha (Eleocharis kuroguwai; 3 WAT) of 52%, an inhibition at 1500 g/ha (Eleocharis kuroguwai; 5 WAT) of 30% and an inhibition at 1500 g/ha (Eleocharis kuroguwai; 7 WAT) of 0%. The inhibition at 3000 g/ha (Eleocharis kuroguwai; 3 WAT) was 84%, the inhibition at 3000 g/ha (Eleocharis kuroguwai; 5 WAT) was 78% and the inhibition at 3000 g/ha (Eleocharis kuroguwai; 7 WAT) was 45%.
